According to patent US20260139005A1 (priority 2022, published 2026):
Converted amounts (≈) assume the structure as drawn. Where a SMILES comes first, the peptide text is derived from it.

System: Fusarium graminearum
Conditions: not given

| Compound | MIC (μM) Fusarium graminearum |
| --- | --- |
| TKPCQSDKDCAAAACRKPKVPKCINGFCKCVR [NCR13_AlaV2] | Inactive |
| TKPCQSDKDCKKFACAAAAVPKCINGFCKCVR [NCR13_AlaV3] | Inactive |

Same assay, conditions: 48 h

| Compound | MIC (μM) Fusarium graminearum |
| --- | --- |
| CC[C@H](C)[C@H](NC(=O)[C@H](CS)NC(=O)[C@H](CCCCN)NC(=O)[C@@H]1CCCN1C(=O)[C@@H](NC(=O)[C@H](CCCCN)NC(=O)[C@@H]1CCCN1C(=O)[C@H](CCCCN)NC(=O)[C@H](CCCNC(=N)N)NC(=O)[C@H](CS)NC(=O)[C@H](C)NC(=O)[C@H](Cc1ccccc1)NC(=O)[C@H](CCCCN)NC(=O)[C@H](CCCCN)NC(=O)[C@H](CS)NC(=O)[C@H](C)NC(=O)[C@H](C)NC(=O)[C@H](C)NC(=O)[C@H](C)NC(=O)[C@H](C)NC(=O)[C@H](CS)NC(=O)[C@@H]1CCCN1C(=O)[C@H](CCCCN)NC(=O)[C@@H](N)[C@@H](C)O)C(C)C)C(=O)N[C@@H](CC(N)=O)C(=O)NCC(=O)N[C@@H](Cc1ccccc1)C(=O)N[C@@H](CS)C(=O)N[C@@H](CCCCN)C(=O)N[C@@H](CS)C(=O)N[C@H](C(=O)N[C@@H](CCCNC(=N)N)C(=O)O)C(C)C [NCR13_AlaV1] (H-TKPCAAAAACKKFACRKPKVPKCINGFCKCVR-OH; N-terminus and C-terminus assumed) | 6 µM (≈ 20.7 µg/mL) |
| CC[C@H](C)[C@H](NC(=O)[C@H](CS)NC(=O)[C@H](CCCCN)NC(=O)[C@@H]1CCCN1C(=O)[C@@H](NC(=O)[C@H](CCCCN)NC(=O)[C@@H]1CCCN1C(=O)[C@H](CCCCN)NC(=O)[C@H](CCCNC(=N)N)NC(=O)[C@H](CS)NC(=O)[C@H](C)NC(=O)[C@H](Cc1ccccc1)NC(=O)[C@H](CCCCN)NC(=O)[C@H](CCCCN)NC(=O)[C@H](CS)NC(=O)[C@H](CC(=O)O)NC(=O)[C@H](CCCCN)NC(=O)[C@H](CC(=O)O)NC(=O)[C@H](CO)NC(=O)[C@H](CCC(N)=O)NC(=O)[C@H](CS)NC(=O)[C@@H]1CCCN1C(=O)[C@H](CCCCN)NC(=O)[C@@H](N)[C@@H](C)O)C(C)C)C(=O)N[C@@H](CC(N)=O)C(=O)NCC(=O)N[C@@H](Cc1ccccc1)C(=O)N[C@@H](CS)C(=O)N[C@@H](CCCCN)C(=O)N[C@@H](CS)C(=O)N[C@H](C(=O)N[C@@H](CCCNC(=N)N)C(=O)O)C(C)C [NCR13, reference compound] (H-TKPCQSDKDCKKFACRKPKVPKCINGFCKCVR-OH; N-terminus and C-terminus assumed) | 6 µM (≈ 22 µg/mL) |
| CC(C)[C@H](NC(=O)[C@H](CS)NC(=O)[C@H](CCCCN)NC(=O)[C@H](CS)NC(=O)[C@H](C)NC(=O)[C@H](C)NC(=O)[C@H](C)NC(=O)[C@H](C)NC(=O)[C@H](CS)NC(=O)[C@H](CCCCN)NC(=O)[C@@H]1CCCN1C(=O)[C@@H](NC(=O)[C@H](CCCCN)NC(=O)[C@@H]1CCCN1C(=O)[C@H](CCCCN)NC(=O)[C@H](CCCNC(=N)N)NC(=O)[C@H](CS)NC(=O)[C@H](C)NC(=O)[C@H](Cc1ccccc1)NC(=O)[C@H](CCCCN)NC(=O)[C@H](CCCCN)NC(=O)[C@H](CS)NC(=O)[C@H](CC(=O)O)NC(=O)[C@H](CCCCN)NC(=O)[C@H](CC(=O)O)NC(=O)[C@H](CO)NC(=O)[C@H](CCC(N)=O)NC(=O)[C@H](CS)NC(=O)[C@@H]1CCCN1C(=O)[C@H](CCCCN)NC(=O)[C@@H](N)[C@@H](C)O)C(C)C)C(=O)N[C@@H](CCCNC(=N)N)C(=O)O [NCR13_AlaV5] (H-TKPCQSDKDCKKFACRKPKVPKCAAAACKCVR-OH; N-terminus and C-terminus assumed) | 6 µM (≈ 21.1 µg/mL) |
| CC[C@H](C)[C@H](NC(=O)[C@H](CS)NC(=O)[C@H](C)NC(=O)[C@H](C)NC(=O)[C@H](C)NC(=O)[C@H](CCCCN)NC(=O)[C@@H]1CCCN1C(=O)[C@H](CCCCN)NC(=O)[C@H](CCCNC(=N)N)NC(=O)[C@H](CS)NC(=O)[C@H](C)NC(=O)[C@H](Cc1ccccc1)NC(=O)[C@H](CCCCN)NC(=O)[C@H](CCCCN)NC(=O)[C@H](CS)NC(=O)[C@H](CC(=O)O)NC(=O)[C@H](CCCCN)NC(=O)[C@H](CC(=O)O)NC(=O)[C@H](CO)NC(=O)[C@H](CCC(N)=O)NC(=O)[C@H](CS)NC(=O)[C@@H]1CCCN1C(=O)[C@H](CCCCN)NC(=O)[C@@H](N)[C@@H](C)O)C(=O)N[C@@H](CC(N)=O)C(=O)NCC(=O)N[C@@H](Cc1ccccc1)C(=O)N[C@@H](CS)C(=O)N[C@@H](CCCCN)C(=O)N[C@@H](CS)C(=O)N[C@H](C(=O)N[C@@H](CCCNC(=N)N)C(=O)O)C(C)C [NCR13_AlaV4] (H-TKPCQSDKDCKKFACRKPKAAACINGFCKCVR-OH; N-terminus and C-terminus assumed) | 12 µM (≈ 42.6 µg/mL) |
